# Measurements reported in article PMC4979471 (Cell Death Discovery, 2015).
# Where two headings read alike, the source gives them in different places.
# Tests used:
# Experiment in all cases: Kinase selectivity, P33-radiolabeled assay
# Assay type in all cases: biochemical
# Details in all cases: 10 μM ATP
# CLK2 = biological target: T1, CLK2 (Homo sapiens, UniProt P49760)
# T1 construct: purchased Reaction Biology Corp
# Procedure, shortened: (§1)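 Activity relative to DMSO controls (%) was measured for compound at 10 μM. Assays ran at 10 μM ATP, in duplicate.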
# DYRK2 = biological target: T2, DYRK2 (Homo sapiens, UniProt Q92630)
# T2 construct: purchased Reaction Biology Corp
# T2 sequence (Q92630 1-601): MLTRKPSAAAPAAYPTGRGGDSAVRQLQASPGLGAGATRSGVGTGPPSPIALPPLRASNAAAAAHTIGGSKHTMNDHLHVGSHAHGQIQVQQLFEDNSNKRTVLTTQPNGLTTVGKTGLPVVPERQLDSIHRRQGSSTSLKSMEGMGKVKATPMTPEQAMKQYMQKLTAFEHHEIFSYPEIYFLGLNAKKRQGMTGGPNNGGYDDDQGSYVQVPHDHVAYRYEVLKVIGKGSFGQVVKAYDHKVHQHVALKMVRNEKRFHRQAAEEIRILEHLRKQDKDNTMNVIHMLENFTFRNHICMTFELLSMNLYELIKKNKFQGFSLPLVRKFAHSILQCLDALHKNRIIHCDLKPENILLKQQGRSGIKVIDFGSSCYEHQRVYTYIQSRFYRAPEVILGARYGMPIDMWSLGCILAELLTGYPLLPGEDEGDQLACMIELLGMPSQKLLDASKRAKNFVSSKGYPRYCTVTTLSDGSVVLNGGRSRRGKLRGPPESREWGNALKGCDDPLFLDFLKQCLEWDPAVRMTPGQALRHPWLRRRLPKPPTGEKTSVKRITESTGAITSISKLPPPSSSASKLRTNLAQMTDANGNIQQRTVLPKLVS
# Procedure, shortened: as §1
# MNK1 = biological target: T3, MNK1 (Homo sapiens, UniProt Q9BUB5)
# T3 construct: purchased Reaction Biology Corp
# T3 sequence (Q9BUB5 whole entry): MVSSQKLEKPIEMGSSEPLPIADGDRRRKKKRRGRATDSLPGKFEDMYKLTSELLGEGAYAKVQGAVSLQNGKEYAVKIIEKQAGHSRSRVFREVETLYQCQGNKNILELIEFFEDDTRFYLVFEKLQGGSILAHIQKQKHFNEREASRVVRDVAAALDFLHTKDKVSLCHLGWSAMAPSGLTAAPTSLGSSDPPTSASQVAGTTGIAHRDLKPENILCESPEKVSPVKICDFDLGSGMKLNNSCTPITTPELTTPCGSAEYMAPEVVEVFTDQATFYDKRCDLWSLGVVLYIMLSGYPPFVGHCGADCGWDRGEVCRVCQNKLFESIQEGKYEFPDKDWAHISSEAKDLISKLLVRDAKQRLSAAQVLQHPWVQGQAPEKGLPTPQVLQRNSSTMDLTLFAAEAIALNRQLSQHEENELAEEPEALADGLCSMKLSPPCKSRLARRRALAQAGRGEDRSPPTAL
# Procedure, shortened: as §1
# MSK1/RPS6KA5 = biological target: T4, MSK1/RPS6KA5 (Homo sapiens, UniProt O75582)
# T4 construct: purchased Reaction Biology Corp
# T4 sequence (O75582 whole entry): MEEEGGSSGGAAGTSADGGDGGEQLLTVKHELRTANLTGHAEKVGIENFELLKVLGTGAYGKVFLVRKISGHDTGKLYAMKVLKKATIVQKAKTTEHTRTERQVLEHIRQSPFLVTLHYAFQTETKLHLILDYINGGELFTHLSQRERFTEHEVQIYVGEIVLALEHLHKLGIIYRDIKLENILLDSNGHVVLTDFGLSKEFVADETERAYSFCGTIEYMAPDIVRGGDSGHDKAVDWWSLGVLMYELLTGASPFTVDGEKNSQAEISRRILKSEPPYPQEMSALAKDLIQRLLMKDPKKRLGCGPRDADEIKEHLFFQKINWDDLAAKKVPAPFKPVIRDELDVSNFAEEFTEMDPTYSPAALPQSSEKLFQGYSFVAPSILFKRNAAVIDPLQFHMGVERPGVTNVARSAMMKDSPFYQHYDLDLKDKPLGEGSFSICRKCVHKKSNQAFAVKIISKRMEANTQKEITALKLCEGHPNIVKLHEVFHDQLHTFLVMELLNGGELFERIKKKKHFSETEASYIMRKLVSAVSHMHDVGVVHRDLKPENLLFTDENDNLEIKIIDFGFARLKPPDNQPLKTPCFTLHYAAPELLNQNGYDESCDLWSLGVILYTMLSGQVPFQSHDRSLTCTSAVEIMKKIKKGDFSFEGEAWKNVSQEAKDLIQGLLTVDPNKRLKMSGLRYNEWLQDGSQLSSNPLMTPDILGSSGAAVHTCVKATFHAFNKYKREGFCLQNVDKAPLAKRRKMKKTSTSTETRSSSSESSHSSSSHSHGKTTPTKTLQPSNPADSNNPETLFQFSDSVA
# Procedure, shortened: as §1
# PKCnu/PRKD3 = biological target: T5, PKCnu/PRKD3 (Homo sapiens, UniProt O94806)
# T5 construct: purchased Reaction Biology Corp
# T5 sequence (O94806 1-890): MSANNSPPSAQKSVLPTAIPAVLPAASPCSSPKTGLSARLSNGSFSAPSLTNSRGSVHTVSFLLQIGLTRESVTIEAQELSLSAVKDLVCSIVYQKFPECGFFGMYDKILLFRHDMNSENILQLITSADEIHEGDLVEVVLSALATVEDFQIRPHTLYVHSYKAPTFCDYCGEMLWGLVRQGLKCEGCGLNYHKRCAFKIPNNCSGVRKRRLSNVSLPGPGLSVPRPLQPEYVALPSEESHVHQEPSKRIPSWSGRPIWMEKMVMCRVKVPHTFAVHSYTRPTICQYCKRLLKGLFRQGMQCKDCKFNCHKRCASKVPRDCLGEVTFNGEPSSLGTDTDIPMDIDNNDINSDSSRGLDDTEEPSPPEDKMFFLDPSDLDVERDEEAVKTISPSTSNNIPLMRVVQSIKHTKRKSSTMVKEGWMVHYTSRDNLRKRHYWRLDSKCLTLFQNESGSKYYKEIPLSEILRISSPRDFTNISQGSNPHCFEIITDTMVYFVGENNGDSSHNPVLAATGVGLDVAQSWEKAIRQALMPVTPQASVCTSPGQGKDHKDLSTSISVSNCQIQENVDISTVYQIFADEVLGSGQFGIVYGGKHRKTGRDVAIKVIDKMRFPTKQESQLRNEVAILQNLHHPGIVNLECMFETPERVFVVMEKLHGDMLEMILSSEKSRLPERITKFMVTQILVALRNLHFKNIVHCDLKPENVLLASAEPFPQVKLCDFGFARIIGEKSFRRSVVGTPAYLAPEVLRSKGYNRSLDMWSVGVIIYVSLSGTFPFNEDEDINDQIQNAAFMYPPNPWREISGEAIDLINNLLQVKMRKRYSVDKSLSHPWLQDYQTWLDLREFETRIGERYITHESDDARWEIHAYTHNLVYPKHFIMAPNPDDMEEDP
# Procedure, shortened: as §1
# PLK1 = biological target: T6, PLK1 (Homo sapiens, UniProt P53350)
# T6 construct: purchased Reaction Biology Corp
# T6 sequence (P53350 whole entry): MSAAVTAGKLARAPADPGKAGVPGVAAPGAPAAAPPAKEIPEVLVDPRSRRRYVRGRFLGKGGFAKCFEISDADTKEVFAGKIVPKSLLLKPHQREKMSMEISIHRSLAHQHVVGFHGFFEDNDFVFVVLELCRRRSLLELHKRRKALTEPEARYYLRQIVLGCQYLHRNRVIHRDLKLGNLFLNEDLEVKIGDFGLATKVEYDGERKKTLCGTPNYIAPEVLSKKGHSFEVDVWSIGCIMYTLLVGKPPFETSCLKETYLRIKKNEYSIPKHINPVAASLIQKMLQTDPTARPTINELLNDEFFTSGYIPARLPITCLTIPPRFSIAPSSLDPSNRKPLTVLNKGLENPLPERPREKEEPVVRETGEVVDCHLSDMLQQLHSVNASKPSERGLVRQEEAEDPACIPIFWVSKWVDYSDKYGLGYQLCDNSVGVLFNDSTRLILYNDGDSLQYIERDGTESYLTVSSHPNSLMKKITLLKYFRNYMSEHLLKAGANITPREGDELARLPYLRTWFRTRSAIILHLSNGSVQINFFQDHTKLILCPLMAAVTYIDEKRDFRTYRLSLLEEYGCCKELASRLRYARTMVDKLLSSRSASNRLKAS
# Procedure, shortened: as §1
# SLK/STK2 = biological target: T7, SLK/STK2 (Homo sapiens, UniProt Q9H2G2)
# T7 construct: purchased Reaction Biology Corp
# T7 sequence (Q9H2G2 whole entry): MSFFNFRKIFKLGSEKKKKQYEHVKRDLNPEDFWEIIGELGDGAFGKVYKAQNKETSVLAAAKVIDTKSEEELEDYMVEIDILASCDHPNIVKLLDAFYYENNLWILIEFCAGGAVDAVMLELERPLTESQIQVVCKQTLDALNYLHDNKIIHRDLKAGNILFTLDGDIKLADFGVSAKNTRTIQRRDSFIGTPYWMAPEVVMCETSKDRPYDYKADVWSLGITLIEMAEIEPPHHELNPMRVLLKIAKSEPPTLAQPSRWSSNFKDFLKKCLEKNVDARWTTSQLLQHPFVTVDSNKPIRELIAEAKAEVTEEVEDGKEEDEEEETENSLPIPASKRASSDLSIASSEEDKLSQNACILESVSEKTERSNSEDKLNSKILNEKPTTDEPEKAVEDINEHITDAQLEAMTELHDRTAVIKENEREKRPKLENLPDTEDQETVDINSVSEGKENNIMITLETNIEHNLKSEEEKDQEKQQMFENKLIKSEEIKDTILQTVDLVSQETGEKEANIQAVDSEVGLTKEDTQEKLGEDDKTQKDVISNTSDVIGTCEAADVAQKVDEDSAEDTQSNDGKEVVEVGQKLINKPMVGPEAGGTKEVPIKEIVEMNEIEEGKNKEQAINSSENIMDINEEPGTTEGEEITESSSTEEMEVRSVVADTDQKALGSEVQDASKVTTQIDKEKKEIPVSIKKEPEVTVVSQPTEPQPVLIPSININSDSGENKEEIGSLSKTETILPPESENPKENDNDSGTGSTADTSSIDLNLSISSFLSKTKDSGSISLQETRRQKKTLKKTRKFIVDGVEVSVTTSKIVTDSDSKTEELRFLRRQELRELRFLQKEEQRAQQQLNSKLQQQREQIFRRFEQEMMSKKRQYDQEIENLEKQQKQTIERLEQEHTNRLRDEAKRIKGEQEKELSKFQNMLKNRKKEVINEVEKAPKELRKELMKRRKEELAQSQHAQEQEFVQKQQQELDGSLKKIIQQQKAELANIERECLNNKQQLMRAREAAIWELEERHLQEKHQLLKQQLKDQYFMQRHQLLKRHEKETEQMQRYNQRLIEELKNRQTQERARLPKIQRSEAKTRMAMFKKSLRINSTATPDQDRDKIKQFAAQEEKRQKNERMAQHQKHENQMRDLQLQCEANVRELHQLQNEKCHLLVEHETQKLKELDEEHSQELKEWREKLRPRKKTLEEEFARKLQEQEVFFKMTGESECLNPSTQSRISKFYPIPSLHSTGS
# Procedure, shortened: as §1
# [1] = read-out: % Enzyme Activity (relative to DMSO controls) AVG
# [2] = read-out: % Enzyme Activity (relative to DMSO controls) Data 1
# [3] = read-out: % Enzyme Activity (relative to DMSO controls) Data 2
# T1 sequence (P49760 whole entry): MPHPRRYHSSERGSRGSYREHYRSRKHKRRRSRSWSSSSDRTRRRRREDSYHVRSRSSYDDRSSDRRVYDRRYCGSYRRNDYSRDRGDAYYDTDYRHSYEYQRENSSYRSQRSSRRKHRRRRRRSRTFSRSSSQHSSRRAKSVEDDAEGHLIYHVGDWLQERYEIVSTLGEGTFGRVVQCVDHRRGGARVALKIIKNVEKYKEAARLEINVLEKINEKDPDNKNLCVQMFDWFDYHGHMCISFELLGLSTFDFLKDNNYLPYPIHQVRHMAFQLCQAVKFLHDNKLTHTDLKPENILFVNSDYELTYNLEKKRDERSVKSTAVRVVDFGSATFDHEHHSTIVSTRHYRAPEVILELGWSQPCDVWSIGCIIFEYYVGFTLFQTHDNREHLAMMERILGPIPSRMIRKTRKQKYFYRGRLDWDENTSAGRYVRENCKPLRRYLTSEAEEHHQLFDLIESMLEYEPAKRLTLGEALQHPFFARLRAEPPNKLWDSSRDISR
smiles,measurement,setting,value
CC(C)(C)C(=O)N1N=CC[C@H]1c1ccccc1 [GSK′963],remaining activity at 10 µM,CLK2; [1],101%
same,remaining activity at 10 µM,CLK2; [2],102%
same,remaining activity at 10 µM,CLK2; [3],99.7%
same,remaining activity at 10 µM,DYRK2; [1],97.7%
same,remaining activity at 10 µM,DYRK2; [2],96.9%
same,remaining activity at 10 µM,DYRK2; [3],98.4%
same,remaining activity at 10 µM,MNK1; [1],117%
same,remaining activity at 10 µM,MNK1; [2],111%
same,remaining activity at 10 µM,MNK1; [3],122%
same,remaining activity at 10 µM,MSK1/RPS6KA5; [1],108%
same,remaining activity at 10 µM,MSK1/RPS6KA5; [2],108%
same,remaining activity at 10 µM,MSK1/RPS6KA5; [3],108%
same,remaining activity at 10 µM,PKCnu/PRKD3; [1],101%
same,remaining activity at 10 µM,PKCnu/PRKD3; [2],103%
same,remaining activity at 10 µM,PKCnu/PRKD3; [3],100%
same,remaining activity at 10 µM,PLK1; [1],103%
same,remaining activity at 10 µM,PLK1; [2],105%
same,remaining activity at 10 µM,PLK1; [3],101%
same,remaining activity at 10 µM,SLK/STK2; [1],86.9%
same,remaining activity at 10 µM,SLK/STK2; [2],85.3%
same,remaining activity at 10 µM,SLK/STK2; [3],88.5%
